Results reported in patent US20240285540A1, “FUNCTIONAL THERAPEUTIC INDEX IN THE TREATMENT OF PERIPHERAL IMMUNE DYSFUNCTION” (priority 2023, published 2024).
Marks after values point to notes of the source that are not given here. Primed or numbered codes have the meaning given here. Ends that are not written are not given here. bexarotene = RXR ligand attached at the C-terminus; adapalene = RARβ/γ ligand, attached at C-terminus; GW7647″ = PPARα ligand, attached at C-terminus; GW4064 = FXR ligand, attached at C-terminus

System: C2C12 myoblast cell line
Test: C2C12 myoblast differentiation assay (creatine kinase)
Format: cell-based
Settings: 96 hours, relative to imm3SVD peptide (=100)
Method: C2C12 myoblast cell line (ATCC, Manassas, VA) was cultured in DMEM medium supplemented with 10% FBS and 1% penicillin/streptomycin. For differentiation, cells were cultured in the same medium, except that 10% FBS was replaced by 2% horse serum. Peptides and NR ligands were added at the indicated concentrations and cells were harvested 96 hours later for assay. Cell extracts were assayed for creatine kinase (CK) per mg protein. CK was measured using the ECPK-100 kit from BioAssay Systems (Hayward, CA). Protein was assayed using the BCA protein assay kit from Thermofisher Scientific (Waltham, MA). CK activities and p values were expressed relative to imm3SVD peptide (=100). **p<0.01; *p<00.05.

[1] = Peptide 0.66 uM, no added free ligand

| Molecule | CK (units/mg) [1] | CK (units/mg) (Added ligand 2 uM together with imm3SVD peptide 0.66 uM) |
| --- | --- | --- |
| imm3fxr: SDKKGFYKKKQCRPSKGRKRGFCWSVDK C-terminally liganded with GW4064 (FXR ligand) (SDKKGFYKKKQCRPSKGRKRGFCWSVDK-GW4064; cysteine pairing not given here) | 136.8 ± 19.6* % of imm3SVD peptide | – |
| CN1c2ccccc2N=C(c2ccc(C(=O)O)cc2)c2cc3c(cc21)C(C)(C)CCC3(C)C [HX600] | – | 30.3 ± 16.0* % of imm3SVD peptide |
| imm3ppa: SDKKGFYKKKQCRPSKGRKRGFCWSVDK C-terminally liganded with GW7647 (PPARα ligand) (SDKKGFYKKKQCRPSKGRKRGFCWSVDK-{GW7647″}; cysteine pairing not given here) | 155.9 ± 18.8** % of imm3SVD peptide | – |
| imm3bex: SDKKGFYKKKQCRPSKGRKRGFCWSVDK C-terminally liganded with bexarotene (RXR ligand) (SDKKGFYKKKQCRPSKGRKRGFCWSVDK-bexarotene; cysteine pairing not given here) | 121.0 ± 6.6* % of imm3SVD peptide | – |
| imm3adp: KKGFYKKKQCRPSKGRKRGFCWSVDK C-terminally liganded with adapalene (RARß/γ ligand) (KKGFYKKKQCRPSKGRKRGFCWSVDK-adapalene; cysteine pairing not given here) | 185.8 ± 23.5** % of imm3SVD peptide | – |
